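Tested at 5 concentrations; 48 h exposure; 96-well plates; endpoints linearly interpolated, else capped at highest concentration. TGI is the concentration that stops growth completely.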
Experiments:
Assay in all cases: NCI-60 cell line screen, 48 h
[1] = tested on: 786-0 renal
[2] = tested on: A498 renal
[3] = tested on: A549 NSCLC
[4] = tested on: ACHN renal
[5] = tested on: BT-549 breast
[6] = tested on: CAKI-1 renal
[7] = tested on: CCRF-CEM leukemia
[8] = tested on: DU-145 prostate
[9] = tested on: EKVX NSCLC
[10] = tested on: HCT-116 colon
[11] = tested on: HCT-15 colon
[12] = tested on: HL-60(TB) leukemia
[13] = tested on: HOP-62 NSCLC
[14] = tested on: HS 578T breast
[15] = tested on: HT29 colon
[16] = tested on: IGROV1 ovarian
[17] = tested on: K-562 leukemia
[18] = tested on: KM12 colon
[19] = tested on: LOX IMVI melanoma
[20] = tested on: M14 melanoma
[21] = tested on: MALME-3M melanoma
[22] = tested on: MCF7 breast
[23] = tested on: MDA-MB-231 breast
[24] = tested on: MDA-MB-435
[25] = tested on: MDA-N
[26] = tested on: MOLT-4 leukemia
[27] = tested on: NCI-H226 lung
[28] = tested on: NCI-H23 lung
[29] = tested on: NCI-H522 lung
[30] = tested on: NCI/ADR-RES ovarian
[31] = tested on: OVCAR-5 ovarian
[32] = tested on: OVCAR-8 ovarian
[33] = tested on: PC-3 prostate
[34] = tested on: RPMI-8226 leukemia
[35] = tested on: RXF 393 renal
[36] = tested on: SF-268 CNS
[37] = tested on: SF-295 CNS
[38] = tested on: SF-539 CNS
[39] = tested on: SK-MEL-2 melanoma
[40] = tested on: SK-MEL-28 melanoma
[41] = tested on: SK-MEL-5 melanoma
[42] = tested on: SK-OV-3 ovarian
[43] = tested on: SN12C renal
[44] = tested on: SNB-19 CNS
[45] = tested on: SNB-75 CNS
[46] = tested on: SR leukemia
[47] = tested on: SW-620 colon
[48] = tested on: T-47D breast
[49] = tested on: TK-10 renal
[50] = tested on: U251 CNS
[51] = tested on: UACC-257 melanoma
[52] = tested on: UACC-62 melanoma
[53] = tested on: UO-31 renal
[54] = tested on: COLO 205 colon
[55] = tested on: HCC-2998 colon
[56] = tested on: HOP-92 NSCLC
[57] = tested on: NCI-H460 lung
[58] = tested on: OVCAR-3 ovarian
[59] = tested on: OVCAR-4 ovarian

CCOc1ccncc1[N+](=O)[O-]
TGI [1]: > 100 µM
TGI [2]: > 100 µM
TGI [3]: > 100 µM
TGI [4]: > 100 µM
TGI [5]: > 100 µM
TGI [6]: > 100 µM
TGI [7]: > 100 µM
TGI [8]: > 100 µM
TGI [9]: > 100 µM
TGI [10]: > 100 µM
TGI [11]: > 100 µM
TGI [12]: > 100 µM
TGI [13]: > 100 µM
TGI [14]: > 100 µM
TGI [15]: > 100 µM
TGI [16]: > 100 µM
TGI [17]: > 100 µM
TGI [18]: > 100 µM
TGI [19]: > 100 µM
TGI [20]: > 100 µM
TGI [21]: > 100 µM
TGI [22]: > 100 µM
TGI [23]: > 100 µM
TGI [24]: > 100 µM
TGI [25]: > 100 µM
TGI [26]: > 100 µM
TGI [27]: > 100 µM
TGI [28]: > 100 µM
TGI [29]: > 100 µM
TGI [30]: > 100 µM
TGI [31]: > 100 µM
TGI [32]: > 100 µM
TGI [33]: > 100 µM
TGI [34]: > 100 µM
TGI [35]: > 100 µM
TGI [36]: > 100 µM
TGI [37]: > 100 µM
TGI [38]: > 100 µM
TGI [39]: > 100 µM
TGI [40]: > 100 µM
TGI [41]: > 100 µM
TGI [42]: > 100 µM
TGI [43]: > 100 µM
TGI [44]: > 100 µM
TGI [45]: > 100 µM
TGI [46]: > 100 µM
TGI [47]: > 100 µM
TGI [48]: > 100 µM
TGI [49]: > 100 µM
TGI [50]: > 100 µM
TGI [51]: > 100 µM
TGI [52]: > 100 µM
TGI [53]: > 100 µM

CCOC(=O)/C=C/[C@H](O[Si](CC)(CC)CC)C(C)(C)C
TGI [1]: > 100 µM
TGI [2]: > 100 µM
TGI [3]: > 100 µM
TGI [4]: > 100 µM
TGI [5]: > 100 µM
TGI [6]: > 100 µM
TGI [7]: 48.6 µM
TGI [54]: > 100 µM
TGI [8]: > 100 µM
TGI [9]: > 100 µM
TGI [55]: > 100 µM
TGI [10]: > 100 µM
TGI [11]: > 100 µM
TGI [13]: > 100 µM
TGI [56]: > 100 µM
TGI [14]: > 100 µM
TGI [15]: > 100 µM
TGI [16]: > 100 µM
TGI [17]: > 100 µM
TGI [18]: > 100 µM
TGI [19]: 46.2 µM
TGI [21]: > 100 µM
TGI [22]: 66.9 µM
TGI [23]: > 100 µM
TGI [24]: > 100 µM
TGI [25]: > 100 µM
TGI [26]: > 100 µM
TGI [27]: > 100 µM
TGI [28]: > 100 µM
TGI [57]: > 100 µM
TGI [29]: > 100 µM
TGI [30]: > 100 µM
TGI [58]: > 100 µM
TGI [59]: > 100 µM
TGI [31]: > 100 µM
TGI [32]: > 100 µM
TGI [33]: > 100 µM
TGI [34]: 41.3 µM
TGI [35]: > 100 µM
TGI [36]: > 100 µM
TGI [37]: > 100 µM
TGI [38]: > 100 µM
TGI [39]: 80.6 µM
TGI [41]: > 100 µM
TGI [42]: > 100 µM
TGI [43]: > 100 µM
TGI [44]: > 100 µM
TGI [45]: > 100 µM
TGI [46]: 50.7 µM
TGI [47]: > 100 µM
TGI [48]: > 100 µM
TGI [49]: > 100 µM
TGI [50]: 65.8 µM
TGI [51]: > 100 µM
TGI [52]: > 100 µM
TGI [53]: > 100 µM

Cc1cc2c(cc1C)C(=O)C1(C2)Cc2c(C)ccc(C)c2C1=O (stereo unspecified)
TGI [1]: > 100 µM
TGI [3]: > 100 µM
TGI [4]: > 100 µM
TGI [5]: > 100 µM
TGI [6]: > 100 µM
TGI [7]: > 100 µM
TGI [54]: > 100 µM
TGI [8]: > 100 µM
TGI [9]: > 100 µM
TGI [55]: > 100 µM
TGI [10]: > 100 µM
TGI [11]: > 100 µM
TGI [12]: > 100 µM
TGI [56]: > 100 µM
TGI [14]: > 100 µM
TGI [16]: > 100 µM
TGI [17]: > 100 µM
TGI [18]: > 100 µM
TGI [19]: > 100 µM
TGI [20]: > 100 µM
TGI [21]: > 100 µM
TGI [22]: > 100 µM
TGI [23]: > 100 µM
TGI [24]: > 100 µM
TGI [25]: > 100 µM
TGI [26]: > 100 µM
TGI [27]: > 100 µM
TGI [57]: > 100 µM
TGI [29]: > 100 µM
TGI [30]: > 100 µM
TGI [58]: > 100 µM
TGI [59]: > 100 µM
TGI [31]: > 100 µM
TGI [32]: > 100 µM
TGI [33]: > 100 µM
TGI [34]: > 100 µM
TGI [35]: > 100 µM
TGI [36]: > 100 µM
TGI [37]: > 100 µM
TGI [38]: > 100 µM
TGI [39]: > 100 µM
TGI [40]: > 100 µM
TGI [41]: > 100 µM
TGI [43]: > 100 µM
TGI [44]: > 100 µM
TGI [45]: > 100 µM
TGI [46]: > 100 µM
TGI [47]: > 100 µM
TGI [48]: > 100 µM
TGI [49]: > 100 µM
TGI [50]: > 100 µM
TGI [51]: > 100 µM
TGI [52]: > 100 µM
TGI [53]: > 100 µM

O=c1oc2ccccc2cc1-c1cn2ccccc2n1
TGI [1]: 13.4 µM
TGI [2]: 6.49 µM
TGI [3]: 21 µM
TGI [4]: 11.4 µM
TGI [5]: 26.3 µM
TGI [6]: 20.5 µM
TGI [7]: > 22.5 µM
TGI [54]: > 100 µM
TGI [8]: 21 µM
TGI [9]: 29.3 µM
TGI [55]: 39.4 µM
TGI [10]: 30.1 µM
TGI [11]: 38.9 µM
TGI [13]: 14.8 µM
TGI [56]: > 100 µM
TGI [14]: 53.5 µM
TGI [15]: 51.7 µM
TGI [16]: 26.3 µM
TGI [17]: > 52.6 µM
TGI [18]: 37.2 µM
TGI [19]: 33.4 µM
TGI [20]: 28.9 µM
TGI [21]: 14.7 µM
TGI [22]: 30 µM
TGI [23]: 18.5 µM
TGI [24]: 14.5 µM
TGI [25]: 19.8 µM
TGI [26]: > 80.8 µM
TGI [27]: 26.7 µM
TGI [28]: 29.6 µM
TGI [57]: 13.4 µM
TGI [29]: 17.3 µM
TGI [30]: 11.9 µM
TGI [58]: 14.3 µM
TGI [59]: > 42.1 µM
TGI [31]: 46.7 µM
TGI [32]: 10.7 µM
TGI [33]: 12.8 µM
TGI [34]: 47.3 µM
TGI [35]: 13.8 µM
TGI [36]: 13.2 µM
TGI [37]: 13.5 µM
TGI [38]: 10.6 µM
TGI [39]: 14.4 µM
TGI [40]: 17.7 µM
TGI [41]: 20.1 µM
TGI [42]: 15.6 µM
TGI [43]: 17.7 µM
TGI [44]: 12.7 µM
TGI [45]: 6.37 µM
TGI [46]: > 35.5 µM
TGI [47]: 31.6 µM
TGI [48]: 34.6 µM
TGI [49]: 20.5 µM
TGI [50]: 5.66 µM
TGI [51]: 14.3 µM
TGI [52]: 15.8 µM
TGI [53]: 7.02 µM
